Assay results published in patent publication EP0358880B1, “Use of retinoids” (F. HOFFMANN-LA ROCHE AG, priority 1988, dated 1990).
Marks after values point to notes of the source that are not given here.

Experiments:
[1] = test system: UVB-Induced Dermal Damage in the Hairless Mouse; assay: Repair of UVB-induced dermal damage in the hairless mouse (repair zone by histology, Luna's stain, image analyzer); type: in vivo, Hairless mice (HRS/J strain); details: three times per week, 10 weeks, total area per twenty microscopic fields
From the text: Hairless mice (HRS/J strain, Jackson Labs, 5-7 weeks old at the start of the experiments) were irradiated three times per week with a bank of 8 Westinghouse® Sunlamps (FS40) placed about 20cm above the animals. The radiation dose was controlled by an International Light Model IL844A Phototherapy Exposure Control and a detector. The UVB dosing schedule was such that individual doses, seldom exceeding 0.06J/cm², caused minimal erythema but no burning or scarring. There was significant elastosis, detected by histology, after a total dose of about 3.5J/cm²: this was confirmed in measurements of elastin in whole skin by means of a radioimmunoassay for desmosine. Desmosine is found in elastin hydrolysates and is derived from crosslinks in the elastin molecule; it is a reliable index of total elastin. Typically, desmosine increased by about 2-3 fold after 3.5J/cm² of UVB irradiation. To effect repair of the dermal damage, the UVB irradiation was discontinued and animals were treated three times per week with various concentrations of the compounds of formula I dissolved in acetone. Solutions were made up freshly every week at concentrations such that the dose was delivered in 100µl acetone and applied topically to an area of about 10 cm² on the back of the animal with a plastic pipette; a control group treated with acetone alone was also included. After 10 weeks of treatment the animals were sacrificed, skin samples were taken and processed by standard methods. A six µm [micron] section from each animal was stained for elastin with Luna's stain and the degree of repair measured quantitatively. In this model, repair is defined by the appearance of a normalized dermis extending from the epidermis down to the layer of compressed elastin. The extent of repair was reflected by the width of this zone. In these studies, the area of the zone on a standard length of histological section was measured by an image analyzer and the results are given as total area in mm² per twenty microscopic fields. Data was analyzed by Student's t-test. The results are given in Table I. In Table I, and Table II each group dosed at a particular concentration of compound of formula I contained six to ten animals.

[2] = test system: Wrinkles Produced in Hairless Mice by UVB-Irradiation; assay: Effect on wrinkles produced in hairless mice by UVB irradiation (skin replica, visual Wrinkle Index); type: in vivo
From the text: Hairless mice (HRS/J strain, Jackson Labs, 5-7 weeks old at the start of the experiments) were irradiated three times per week with a bank of 8 Westinghouse® Sunlamps (FS40) placed about 20cm above the animals. The radiation dose was controlled by an International Light Model IL844A Phototherapy Exposure Control and a detector. The UVB dosing schedule was such that individual doses, seldom exceeding 0.06J/cm², caused minimal erythema but no burning or scarring. There was significant elastosis, detected by histology, after a total dose of about 3.5J/cm²: this was confirmed in measurements of elastin in whole skin by means of a radioimmunoassay for desmosine. Desmosine is found in elastin hydrolysates and is derived from crosslinks in the elastin molecule; it is a reliable index of total elastin. Typically, desmosine increased by about 2-3 fold after 3.5J/cm² of UVB irradiation. To effect repair of the dermal damage, the UVB irradiation was discontinued and animals were treated three times per week with various concentrations of the compounds of formula I dissolved in acetone. Solutions were made up freshly every week at concentrations such that the dose was delivered in 100µl acetone and applied topically to an area of about 10 cm² on the back of the animal with a plastic pipette; a control group treated with acetone alone was also included.
One skin replica for each animal was taken of these areas using a liquid dental impression material (SILFLO® - Flexico Developments Ltd., England). Wrinkles appeared in these impressions as ridges which cast a shadow when illuminated with low angle light. A characteristic of the wrinkling pattern was the occurrence of the ridges in a regularly-spaced array about 2-mm apart. The extent of wrinkling was visually assessed using this line pattern and assigned a value (Wrinkle Index) of zero to 4 with zero representing complete effacement of wrinkling and 4 representing the maximum degree of wrinkling. It was observed that compounds of formula I caused a dose-dependent effacement of the wrinkles with ED₅₀ values in the microgram range.

SMILES: C/C(=C\c1ccc(SC(=O)N(C)C)cc1)c1ccc2c(c1)C(C)(C)CCC2(C)C [Compound A]
- Repair Zone ([1]; 0.1 µg topical in 100 µl acetone): 0.005 +/- 0.001 mm²
- Repair Zone ([1]; 0.5 µg topical in 100 µl acetone): 0.006 +/- 0.003 mm²
- Repair Zone ([1]; 2.0 µg topical in 100 µl acetone, P < 0.05 vs Control): 0.021 +/- 0.003* mm²
- Repair Zone ([1]; 10.0 µg topical in 100 µl acetone): 0.015 +/- 0.004 mm²
- Repair Zone ([1]; 50.0 µg topical in 100 µl acetone, P < 0.05 vs Control): 0.025 +/- 0.007* mm²
- Wrinkle Index ([2]; 0.1 µg topical, scale zero (complete effacement) to 4 (maximum wrinkling)): 1.4 +/- 0.5
- Wrinkle Index ([2]; 0.5 µg topical, scale zero to 4, P < 0.05 vs Control): 1.0 +/- 0.3*
- Wrinkle Index ([2]; 2.0 µg topical, scale zero to 4, P < 0.01 vs Control): 0.8 +/- 0.2**
- Wrinkle Index ([2]; 10.0 µg topical, scale zero to 4, P < 0.001 vs Control): 0.3 +/- 0.1***
- Wrinkle Index ([2]; 50.0 µg topical, scale zero to 4, P < 0.001 vs Control): 0.3 +/- 0.1***
